According to patent US5346828A, “Stereoisomeric enrichment of 2-amino-3-hydroxy-3-phenylpropionic acids using d-threonine aldolase” (Celgene Corporation, priority 1992, dated 1994):

Assay: incubation of substrate in the same buffer without enzyme (Enzyme 0), HPLC
Assay type: physicochemical
Method: D,L-Threo 2-amino-2-methyl-3-hydroxy-3-phenylpropionic acid (14.1 mM) is incubated at pH 8.75 in 50 mM borate buffer and 0.8 mM pyridoxal phosphate with ruptured cells containing approximately 300 μL of enzyme.
At time intervals of approximately 30, 120 and 210 minutes, 200 μL of the incubation mixture are removed and diluted with 800 μL of 1% perchloric acid. After centrifugation of this mixture, the supernatant is analyzed on HPLC.

## N[C@H](C(=O)O)[C@H](O)c1ccccc1 (relative stereo) [t.phi.S, 2amino-3-hydroxy-3-phenylpropionic acid]
30 min.
  Percentage of total area attributable to benzaldehyde and benzoic acid: 0%
120 min.
  Percentage of total area attributable to benzaldehyde and benzoic acid: 2.2%
210 min.
  Percentage of total area attributable to benzaldehyde and benzoic acid: 3.7%
